Data on nine compounds can be found in PubChem BioAssay AID1259407 (Chemical Carcinogenesis Research Information System (CCRIS), 2018).

Molecules are shown by their SMILES. Activity calls are given as the source filed them. The rule behind the calls is not given here.

The data set deals with CCRIS mutagenicity, Ames/micronucleus/aberration tests. In words: CCRIS mutagenicity studies.
[1] abbreviates: Test System: AMES SALMONELLA TYPHIMURIUM, Strain/Indicator: TA98, Metabolic Activation: NONE, Method: PREINCUBATION
Where [2] appears, read: Test System: AMES SALMONELLA TYPHIMURIUM, Strain/Indicator: TA100, Metabolic Activation: NONE, Method: PREINCUBATION
Setting [3] is: Test System: AMES SALMONELLA TYPHIMURIUM, Strain/Indicator: TA1535, Metabolic Activation: NONE, Method: PREINCUBATION
The mark [4] stands for this setting: Test System: AMES SALMONELLA TYPHIMURIUM, Strain/Indicator: TA1537, Metabolic Activation: NONE, Method: PREINCUBATION
Where [5] appears, read: Test System: AMES SALMONELLA TYPHIMURIUM, Strain/Indicator: TA98, Metabolic Activation: RAT, LIVER, S-9, AROCLOR 1254, Method: STANDARD PLATE.
Where [6] appears, read: Test System: AMES SALMONELLA TYPHIMURIUM, Strain/Indicator: TA1535, Metabolic Activation: RAT, LIVER, S-9, AROCLOR 1254, Method: STANDARD PLATE.
Setting [7] is: Test System: AMES SALMONELLA TYPHIMURIUM, Strain/Indicator: TA100, Metabolic Activation: NONE, Method: STANDARD PLATE.
Where [8] appears, read: Test System: AMES SALMONELLA TYPHIMURIUM, Strain/Indicator: TA100, Metabolic Activation: RAT, LIVER, S-9, AROCLOR 1254, Method: STANDARD PLATE.

Consider `C[C@H]1COc2c(N3CCN(C)CC3)c(F)cc3c(=O)c(C(=O)O)cn1c23`, for which the mutagenic call under setting [1] is “inactive; negative”; the mutagenic call (Test System: AMES SALMONELLA TYPHIMURIUM, Strain/Indicator: TA98, Metabolic Activation: RAT, LIVER, S-9, PHENOBARBITAL AND BETA-NAPHTHOFLAVONE, Method: PREINCUBATION) is “inactive; negative”; the mutagenic call under setting [2] was “inactive; negative”; the mutagenic call (Test System: AMES SALMONELLA TYPHIMURIUM, Strain/Indicator: TA100, Metabolic Activation: RAT, LIVER, S-9, PHENOBARBITAL AND BETA-NAPHTHOFLAVONE, Method: PREINCUBATION) was “inactive; negative”; the mutagenic call under setting [3] was “inactive; negative”; the mutagenic call (Test System: AMES SALMONELLA TYPHIMURIUM, Strain/Indicator: TA1535, Metabolic Activation: RAT, LIVER, S-9, PHENOBARBITAL AND BETA-NAPHTHOFLAVONE, Method: PREINCUBATION) is “inactive; negative”. The mutagenic call reads like this: under setting [4], “inactive; negative”; (Test System: AMES SALMONELLA TYPHIMURIUM, Strain/Indicator: TA1537, Metabolic Activation: RAT, LIVER, S-9, PHENOBARBITAL AND BETA-NAPHTHOFLAVONE, Method: PREINCUBATION) “inactive; negative”; (Test System: CHINESE HAMSTER OVARY, Strain/Indicator: CHO-K1 (HGPRT)/6-THIOGUANINE, Metabolic Activation: NONE) “inactive; negative”; (Test System: CHINESE HAMSTER OVARY, Strain/Indicator: CHO-K1 (HGPRT)/6-THIOGUANINE, Metabolic Activation: RAT, LIVER, S-9, PHENOBARBITAL AND BETA-NAPHTHOFLAVONE) “inactive; negative”; (Test System: E.COLI, Strain/Indicator: WP2 UVRA, Metabolic Activation: NONE, Method: PREINCUBATION) “inactive; negative”; (Test System: E.COLI, Strain/Indicator: WP2 UVRA, Metabolic Activation: RAT, LIVER, S-9, PHENOBARBITAL AND BETA-NAPHTHOFLAVONE, Method: PREINCUBATION) “inactive; negative”. Further, the mutagenic call (Test System: UDS RAT HEPATOCYTES, Strain/Indicator: THY INCORP, Metabolic Activation: NONE, Method: IN VIVO-IN VITRO) was “inactive; negative”.
On to `C[C@]12CC[C@@H]3c4ccc(O)cc4CC[C@H]3[C@@H]1C[C@@H](O)C2=O`, for which the mutagenic call is, setting by setting: (Test System: Ames Salmonella typhimurium, Strain/Indicator: TA98, Metabolic Activation: None, Method: Standard plate) “inactive; negative”; (Test System: Ames Salmonella typhimurium, Strain/Indicator: TA98, Metabolic Activation: Rat, liver, S-9, Method: Standard plate) “inactive; negative”; (Test System: Ames Salmonella typhimurium, Strain/Indicator: TA100, Metabolic Activation: None, Method: Standard plate) “inactive; negative”; (Test System: Ames Salmonella typhimurium, Strain/Indicator: TA100, Metabolic Activation: Rat, liver, S-9, Method: Standard plate) “inactive; negative”.
For `Oc1ccc(-c2ccccc2)cc1`, the mutagenic call runs as follows: under setting [5], “active; positive”; under setting [6], “inactive; negative”.
`Cc1ccccc1S(N)(=O)=O`: the mutagenic call reads like this: under setting [1], “inactive; negative”; (Test System: AMES SALMONELLA TYPHIMURIUM, Strain/Indicator: TA98, Metabolic Activation: RAT LIVER S-9, PHENOBARBITAL AND BETA-NAPHTHOFLAVONE, Method: PREINCUBATION) “inactive; negative”; under setting [2], “inactive; negative”; (Test System: AMES SALMONELLA TYPHIMURIUM, Strain/Indicator: TA100, Metabolic Activation: RAT LIVER S-9, PHENOBARBITAL AND BETA-NAPHTHOFLAVONE, Method: PREINCUBATION) “inactive; negative”; under setting [3], “inactive; negative”; (Test System: AMES SALMONELLA TYPHIMURIUM, Strain/Indicator: TA1535, Metabolic Activation: RAT LIVER S-9, PHENOBARBITAL AND BETA-NAPHTHOFLAVONE, Method: PREINCUBATION) “inactive; negative”. In addition, the mutagenic call runs as follows: under setting [4], “inactive; negative”; (Test System: AMES SALMONELLA TYPHIMURIUM, Strain/Indicator: TA1537, Metabolic Activation: RAT LIVER S-9, PHENOBARBITAL AND BETA-NAPHTHOFLAVONE, Method: PREINCUBATION) “inactive; negative”; (Test System: AMES SALMONELLA TYPHIMURIUM, Strain/Indicator: TA1538, Metabolic Activation: NONE, Method: PREINCUBATION) “inactive; negative”; (Test System: AMES SALMONELLA TYPHIMURIUM, Strain/Indicator: TA1538, Metabolic Activation: RAT LIVER S-9, PHENOBARBITAL AND BETA-NAPHTHOFLAVONE, Method: PREINCUBATION) “inactive; negative”; (Test System: E.COLI, Strain/Indicator: WP2UVRA/PKM101, Metabolic Activation: NONE, Method: PREINCUBATION) “inactive; negative”; (Test System: E.COLI, Strain/Indicator: WP2UVRA/PKM101, Metabolic Activation: RAT LIVER S-9, PHENOBARBITAL AND BETA-NAPHTHOFLAVONE, Method: PREINCUBATION) “inactive; negative”. In addition, the mutagenic call runs as follows: (Test System: E.COLI, Strain/Indicator: WP2UVRA, Metabolic Activation: NONE, Method: PREINCUBATION) “inactive; negative”; (Test System: E.COLI, Strain/Indicator: WP2UVRA, Metabolic Activation: RAT LIVER S-9, PHENOBARBITAL AND BETA-NAPHTHOFLAVONE, Method: PREINCUBATION) “inactive; negative”.
On to `OCc1cc2ccccc2c2ccc3ccccc3c12`, for which the mutagenic call is, setting by setting: (Test System: AMES SALMONELLA TYPHIMURIUM, Strain/Indicator: TA98, Metabolic Activation: RAT, LIVER, CYTOSOL AND PAPS GENERATING SYSTEM, Method: PREINCUBATION) “active; positive”; (Test System: AMES SALMONELLA TYPHIMURIUM, Strain/Indicator: TA98, Metabolic Activation: RAT, LIVER, S-9 AND NADPH GENERATING SYSTEM, Method: PREINCUBATION) “inactive; negative”.
As to `CC(Cl)CO` (configuration not stated), the mutagenic call reads like this: (Test System: AMES SALMONELLA TYPHIMURIUM, Strain/Indicator: TA1530, Metabolic Activation: NONE, Method: STANDARD PLATE) “active; positive”; (Test System: AMES SALMONELLA TYPHIMURIUM, Strain/Indicator: TA1535, Metabolic Activation: RAT, LIVER, S-9, PCB, Method: STANDARD PLATE) “active; positive”.
Regarding `CC1(C)CCC2(C(=O)OC3OC(CO)C(O)C(O)C3O)CCC3(CO)C(=CCC4C5(C)CC(O)C(O)C(C)(C(=O)OC6OC(CO)C(O)C(O)C6O)C5CCC43C)C2C1` (configuration not stated), the mutagenic call is “inactive; negative; protective when coadministered with gamma radiation” (End Point: In vivo micronucleus, Test System: Bone marrow polychromatic erythrocytes, Species: Mouse, Strain/Sex: C57BL/6J/Male, Route: Intraperitoneal); “inactive; negative. reevaluation of results: negative” (Test System: MOUSE LYMPHOMA, Strain/Indicator: L5178Y (TK+/TK-), Metabolic Activation: NONE, Method: SUSPENSION/PLATE); “inactive; negative. reevaluation of results: negative” (Test System: MOUSE LYMPHOMA, Strain/Indicator: L5178Y (TK+/TK-), Metabolic Activation: RAT, LIVER, S-9, AROCLOR 1254, Method: SUSPENSION/PLATE).
`COc1cc2c(c3oc(=O)c4c(c13)[C@@H](O)CC4=O)[C@@H]1C=CO[C@@H]1O2`: the mutagenic call is “inactive; negative” (Test System: AMES SALMONELLA TYPHIMURIUM, Strain/Indicator: TA98, Metabolic Activation: HUMAN, LIVER, S-9, Method: STANDARD PLATE); “inactive; negative” (Test System: AMES SALMONELLA TYPHIMURIUM, Strain/Indicator: TA100, Metabolic Activation: HUMAN, LIVER, S-9, Method: STANDARD PLATE); “active; positive” under setting [7]; “active; positive” under setting [8].
Consider `O=C(c1ccc([N+](=O)[O-])cc1)n1ncc(Cl)c(Cl)c1=O`, for which the mutagenic call (Test System: AMES SALMONELLA TYPHIMURIUM, Strain/Indicator: TA98, Metabolic Activation: NONE, Method: STANDARD PLATE) is “inactive; negative”; the mutagenic call under setting [5] was “inactive; negative”; the mutagenic call under setting [7] is “active; positive”; the mutagenic call under setting [8] was “active; positive”; the mutagenic call (Test System: AMES SALMONELLA TYPHIMURIUM, Strain/Indicator: TA1535, Metabolic Activation: NONE, Method: STANDARD PLATE) is “active; positive”; the mutagenic call under setting [6] is “active; positive”. Besides, the mutagenic call reads like this: (Test System: AMES SALMONELLA TYPHIMURIUM, Strain/Indicator: TA1537, Metabolic Activation: NONE, Method: STANDARD PLATE) “inactive; negative”; (Test System: AMES SALMONELLA TYPHIMURIUM, Strain/Indicator: TA1537, Metabolic Activation: RAT, LIVER, S-9, AROCLOR 1254, Method: STANDARD PLATE) “inactive; negative”.
